Assay results reported in the NIST ThermoML archive (doi:10.1021/je050010l).
± gives the expanded uncertainty stated by the source.

Assay: xn = mol fraction of the nth substance listed
Settings: 100.8 kPa, Liquid; for viscosity: Capillary tube (Ostwald / Ubbelohde) method

Compound: CC(C)CC(C)(C)C [2,2,4-trimethylpentane] + CC(C)=O
- mass density (288.15 K, x2 = 0.5): 721.15 ± 0.29 kg/m3
- mass density (288.15 K, x2 = 0.55): 725.46 ± 0.28 kg/m3
- mass density (288.15 K, x2 = 0.6): 730.17 ± 0.28 kg/m3
- mass density (288.15 K, x2 = 0.65): 735.45 ± 0.27 kg/m3
- mass density (288.15 K, x2 = 0.7): 741.35 ± 0.27 kg/m3
- mass density (288.15 K, x2 = 0.75): 747.84 ± 0.26 kg/m3
- mass density (288.15 K, x2 = 0.8): 755.3 ± 0.26 kg/m3
- mass density (288.15 K, x2 = 0.85): 763.58 ± 0.25 kg/m3
- mass density (288.15 K, x2 = 0.9): 773.12 ± 0.24 kg/m3
- mass density (288.15 K, x2 = 0.95): 784.18 ± 0.24 kg/m3
- viscosity (298.15 K, x2 = 0): 0.48 ± 0.004 mPa·s
- viscosity (298.15 K, x2 = 0.0499): 0.465 ± 0.004 mPa·s
- viscosity (298.15 K, x2 = 0.1): 0.452 ± 0.004 mPa·s
- viscosity (298.15 K, x2 = 0.15): 0.44 ± 0.004 mPa·s
- viscosity (298.15 K, x2 = 0.2): 0.429 ± 0.004 mPa·s
- viscosity (298.15 K, x2 = 0.25): 0.419 ± 0.004 mPa·s
- viscosity (298.15 K, x2 = 0.3): 0.409 ± 0.004 mPa·s
- viscosity (298.15 K, x2 = 0.35): 0.399 ± 0.004 mPa·s
- viscosity (298.15 K, x2 = 0.4): 0.39 ± 0.004 mPa·s
- viscosity (298.15 K, x2 = 0.45): 0.382 ± 0.004 mPa·s
- viscosity (298.15 K, x2 = 0.5): 0.374 ± 0.003 mPa·s
- viscosity (298.15 K, x2 = 0.55): 0.366 ± 0.003 mPa·s
- viscosity (298.15 K, x2 = 0.6): 0.358 ± 0.003 mPa·s
- viscosity (298.15 K, x2 = 0.65): 0.35 ± 0.003 mPa·s
- viscosity (298.15 K, x2 = 0.7): 0.343 ± 0.003 mPa·s
- viscosity (298.15 K, x2 = 0.75): 0.336 ± 0.003 mPa·s
- viscosity (298.15 K, x2 = 0.8): 0.329 ± 0.003 mPa·s
- viscosity (298.15 K, x2 = 0.85): 0.322 ± 0.003 mPa·s
- viscosity (298.15 K, x2 = 0.9): 0.315 ± 0.003 mPa·s
- viscosity (298.15 K, x2 = 0.95): 0.309 ± 0.003 mPa·s
- mass density (298.15 K, x2 = 0): 687.74 ± 0.31 kg/m3
- mass density (298.15 K, x2 = 0.0499): 688.89 ± 0.31 kg/m3
- mass density (298.15 K, x2 = 0.1): 690.36 ± 0.31 kg/m3
- mass density (298.15 K, x2 = 0.15): 692.07 ± 0.31 kg/m3
- mass density (298.15 K, x2 = 0.2): 693.98 ± 0.31 kg/m3
- mass density (298.15 K, x2 = 0.25): 696.24 ± 0.31 kg/m3
- mass density (298.15 K, x2 = 0.3): 698.7 ± 0.3 kg/m3
- mass density (298.15 K, x2 = 0.35): 701.44 ± 0.3 kg/m3
- mass density (298.15 K, x2 = 0.4): 704.51 ± 0.3 kg/m3
- mass density (298.15 K, x2 = 0.45): 707.86 ± 0.3 kg/m3
- mass density (298.15 K, x2 = 0.5): 711.61 ± 0.29 kg/m3
- mass density (298.15 K, x2 = 0.55): 715.73 ± 0.29 kg/m3
- mass density (298.15 K, x2 = 0.6): 720.32 ± 0.29 kg/m3
- mass density (298.15 K, x2 = 0.65): 725.44 ± 0.28 kg/m3
- mass density (298.15 K, x2 = 0.7): 731.16 ± 0.28 kg/m3
- mass density (298.15 K, x2 = 0.75): 737.51 ± 0.27 kg/m3
- mass density (298.15 K, x2 = 0.8): 744.71 ± 0.27 kg/m3
- mass density (298.15 K, x2 = 0.85): 752.89 ± 0.26 kg/m3
- mass density (298.15 K, x2 = 0.9): 762.22 ± 0.25 kg/m3
- mass density (298.15 K, x2 = 0.95): 773.02 ± 0.24 kg/m3
- viscosity (308.15 K, x2 = 0): 0.432 ± 0.004 mPa·s
- viscosity (308.15 K, x2 = 0.0499): 0.42 ± 0.004 mPa·s
- viscosity (308.15 K, x2 = 0.1): 0.408 ± 0.004 mPa·s
- viscosity (308.15 K, x2 = 0.15): 0.397 ± 0.004 mPa·s
- viscosity (308.15 K, x2 = 0.2): 0.387 ± 0.004 mPa·s
- viscosity (308.15 K, x2 = 0.25): 0.378 ± 0.003 mPa·s
- viscosity (308.15 K, x2 = 0.3): 0.369 ± 0.003 mPa·s
- viscosity (308.15 K, x2 = 0.35): 0.361 ± 0.003 mPa·s
- viscosity (308.15 K, x2 = 0.4): 0.353 ± 0.003 mPa·s
- viscosity (308.15 K, x2 = 0.45): 0.346 ± 0.003 mPa·s
- viscosity (308.15 K, x2 = 0.5): 0.338 ± 0.003 mPa·s
- viscosity (308.15 K, x2 = 0.55): 0.332 ± 0.003 mPa·s
- viscosity (308.15 K, x2 = 0.6): 0.325 ± 0.003 mPa·s
- viscosity (308.15 K, x2 = 0.65): 0.318 ± 0.003 mPa·s
- viscosity (308.15 K, x2 = 0.7): 0.312 ± 0.003 mPa·s
- viscosity (308.15 K, x2 = 0.75): 0.306 ± 0.003 mPa·s
- viscosity (308.15 K, x2 = 0.8): 0.299 ± 0.003 mPa·s
- viscosity (308.15 K, x2 = 0.85): 0.293 ± 0.003 mPa·s
- viscosity (308.15 K, x2 = 0.9): 0.287 ± 0.003 mPa·s
- viscosity (308.15 K, x2 = 0.95): 0.281 ± 0.003 mPa·s
- mass density (308.15 K, x2 = 0): 679.41 ± 0.32 kg/m3
- mass density (308.15 K, x2 = 0.0499): 680.44 ± 0.32 kg/m3
- mass density (308.15 K, x2 = 0.1): 681.77 ± 0.32 kg/m3
- mass density (308.15 K, x2 = 0.15): 683.36 ± 0.32 kg/m3
- mass density (308.15 K, x2 = 0.2): 685.16 ± 0.31 kg/m3
- mass density (308.15 K, x2 = 0.25): 687.26 ± 0.31 kg/m3
- mass density (308.15 K, x2 = 0.3): 689.56 ± 0.31 kg/m3
- mass density (308.15 K, x2 = 0.35): 692.21 ± 0.31 kg/m3
- mass density (308.15 K, x2 = 0.4): 695.1 ± 0.31 kg/m3
- mass density (308.15 K, x2 = 0.45): 698.29 ± 0.3 kg/m3
- mass density (308.15 K, x2 = 0.5): 701.91 ± 0.3 kg/m3
- mass density (308.15 K, x2 = 0.55): 705.86 ± 0.3 kg/m3
- mass density (308.15 K, x2 = 0.6): 710.3 ± 0.29 kg/m3
- mass density (308.15 K, x2 = 0.65): 715.27 ± 0.29 kg/m3
- mass density (308.15 K, x2 = 0.7): 720.79 ± 0.28 kg/m3
- mass density (308.15 K, x2 = 0.75): 727.01 ± 0.28 kg/m3
- mass density (308.15 K, x2 = 0.8): 733.99 ± 0.27 kg/m3
- mass density (308.15 K, x2 = 0.85): 742.02 ± 0.27 kg/m3
- mass density (308.15 K, x2 = 0.9): 751.12 ± 0.26 kg/m3
- mass density (308.15 K, x2 = 0.95): 761.68 ± 0.25 kg/m3
